US20240316027A1, “USE OF MARAVIROC IN PREPARATION OF DRUGS FOR TREATMENT OF MUSCLE DEGENERATIVE DISEASES” (Center for Neuromusculoskeletal Restorative Medicine Limited, priority 2023, published 2024)

Experiments:
[1] = system: aged mice with sarcopenia; test: Maraviroc treatment of aged mice with sarcopenia; type: in vivo, mouse; settings: 16-month-old mice, 2.5 mg/kg intraperitoneally twice a week for 6 months
Method: Next, to further illustrate the possible application for treating other muscle degenerative diseases, the effectiveness of Maraviroc is tested in aged mice with sarcopenia. 3 pairs of 16-month-old mice are intraperitoneally injected with vehicle (5% DMSO) or Maraviroc (2.5 mg/kg) twice a week for 6 months, as shown in FIG. 7. […] Overall, the Maraviroc treatment delays muscle aging and rejuvenates the mice.

[2] = system: dKO mice; test: Maraviroc treatment of dystrophic dKO (YY1; mdx) and Ctrl mice, DMD mouse model; type: in vivo; settings: for voluntary exercise (running distance on exercise wheels): recorded daily for one week, FIG. 6
Text: The research object of this invention is based on a mouse model of human Duchenne muscular dystrophy (DMD), a congenital mutation in the muscular dystrophy protein leading to spontaneous periodic muscle damage and repair. Chronic inflammation and fibrosis are typical hallmarks of DMD and may contribute to impaired skeletal muscle regeneration. […] These YY1; mdx mice (so called double knock out dKO) display decreased body and muscle weight, severe inflammation and fibrosis, and reduced lifespan. As illustrated in FIGS. 1A-1D, the body weights are continuously monitored and measured at 3M, 5M and 7M intervals and the dKO mice show continuous weight loss compared to Ctrl mice (see FIG. 1A) as time progresses. Furthermore, the reduction in muscle weight (tibialis anterior) and thickness (diaphragm) is also observed over time in contrast to Ctrl mice (see FIG. 1B). […] Meanwhile, excessive inflammation is observed on the dKO muscles as shown by the amount of immune cells infiltration in the interstitial area (see FIG. 1C), along with aggravated fibrosis (detected by Masson's Trichrome staining, see FIG. 1D).
To test the therapeutic effect of Maraviroc on the dystrophic muscles, the above-described Ctrl and dKO mice are treated with dimethyl sulfoxide (DMSO) or Maraviroc respectively.
Next, the muscle morphology is evaluated on the above-treated four groups of mice.
Next it is examined if the treatment improves muscle functions by testing the muscle performance in exercises. Both endurance and voluntary exercises are employed. For endurance exercise, mice are first placed in a treadmill machine, where the bottom of the running track is equipped with an electric shock device to force the mice to continue running as illustrated in FIG. 5. The initial speed is set to 10 cm/s and increased by 5 cm/s every two minutes. By recording the running distance until the mice are exhausted, their endurance strength is determined. […] For voluntary exercise, the mice are placed in cages equipped with exercise wheels, which are connected to counters that accurately record the distance travelled by the mice on the wheels, as illustrated in FIG. 6. The mice are continuously housed in the cages for one week, and their exercise distance on the wheels is recorded daily.

[3] = Phase IIa study; cited from earlier work
[4] = dKO mice, 60 ug in 5% DMSO intraperitoneally every two days for one month, FIG. 2

Cc1nnc(C(C)C)n1[C@@H]1C[C@H]2CC[C@@H](C1)N2CC[C@H](NC(=O)C1CCC(F)(F)CC1)c1ccccc1 [Maraviroc]
TA muscle weight ([1]; FIG. 8): restored | fiber size ([1]; FIG. 8): increased | inflammation ([1]; FIG. 8): attenuated | muscle morphology (H&E staining) ([1]; FIG. 8): remarkable improvement | muscle functions (grip force and treadmill running) ([1]; FIG. 9): restored | number of FAPs and macrophages ([1]; FIG. 10): reduced number | number of MuSCs ([1]; FIG. 10): increased number | muscle morphology, immune cell infiltration and inflammation (H&E staining of TA muscles) ([2]; Ctrl and dKO muscles, FIG. 3): improved morphology with reduced immune cell infiltration and inflammation | effect on body weight of Ctrl mice ([2]; Ctrl mice, 60 ug intraperitoneally every two days for one month, FIG. 2): no obvious effect | voluntary exercise (running distance on exercise wheels) ([2]; Ctrl mice): high level of voluntary exercise | endurance strength (treadmill running distance until exhausted) ([2]; dKO mice, versus dKO mice treated with DMSO, FIG. 5): significantly higher | body weight [2, 4]: significantly restored | muscle weight [2, 4]: significantly restored | muscle fibrosis (Masson's Trichrome staining) ([2]; dKO mice, FIG. 4): significantly alleviate | voluntary exercise (running distance on exercise wheels) ([2]; dKO mice): consistent increase in running distance over time | efficacy in the treatment of RA [3]: no efficacy
